The values that follow come from patent US10106504B2, “Pyridin-3-yl acetic acid derivatives as inhibitors of human immunodeficiency virus replication” (priority 2015, dated 2018).

Structures are written as SMILES.

The subject of the first experiment is NL-RLuc virus. Kind of experiment: Inhibition of HIV replication (NL-RLuc virus, luciferase readout in MT-2 cells). As to conditions: Human immunodeficiency virus 1, MT2, 120 h, read-out: Activity. Format: cell-based. From the text: Inhibition of HIV Replication:
A recombinant NL-RLuc proviral clone was constructed in which a section of the nef gene from NL4-3 was replaced with the Renilla Luciferase gene. This virus is fully infectious and can undergo multiple cycles of replication in cell culture. In addition, the luciferous reporter provides a simple and easy method for quantitating the extent of virus growth and consequently, the antiviral activity of test compounds. The plasmid pNLRLuc contains the proviral NL-Rluc DNA cloned into pUC18 at the PvuII site. The NL-RLuc virus was prepared by transfection of 293T cells with the plasmid pNLRLuc. Transfections were performed using the LipofectAMINE PLUS kit from Invitrogen (Carlsbad, Calif.) according to the manufacturer and the virus generated was titered in MT-2 cells. For susceptibility analyses, the titrated virus was used to infect MT-2 cells in the presence of compound, and after 5 days of incubation, cells were processed and quantitated for virus growth by the amount of expressed luciferase. Assay media was RPMI 1640 supplemented with 10% heat inactivated fetal bovine serum (FBS), 100 units/ml penicillin G/100 units/ml streptomycin, 10 mM HEPES buffer pH 7.55 and 2 mM L-glutamine. The results from at least 2 experiments were used to calculate the EC50 values. Luciferase was quantitated using the Dual Luciferase kit from Promega (Madison, Wis.). Susceptibility of viruses to compounds was determined by incubation in the presence of serial dilutions of the compound. The 50% effective concentration (EC50) was calculated by using the exponential form of the median effect equation where (Fa)=1/[1+(ED50/drug conc.)^m] (Johnson V A, Byington R T. Infectivity Assay. In Techniques in HIV Research. ed. Aldovini A, Walker BD. 71-76. New York: Stockton Press. 1990). Activity equal to A refers to a compound having an EC50<100 nM, while B and C denote compounds having an EC50 between 100 nM and 1 uM (B) or >1 uM (C).
As for `Cc1nc(C)c([C@H](OC(C)(C)C)C(=O)O)c(-c2ccc3c(c2)CCCO3)c1-c1ccc(OCCc2ccccc2F)cc1` [Example 45, (S)-2-(tert-Butoxy)-2-(4-(chroman-6-yl)-5-(4-(2-fluorophenethoxy)phenyl)-2,6-dimethylpyridin-3-yl)acetic Acid], the EC50 is under 0.1 µM. Still for that read-out and setting: the same measure for `Cc1nc(C)c([C@H](OC(C)(C)C)C(=O)O)c(C2=CCC(C)(C)CC2)c1-c1ccc(OCCc2ccc(F)cc2)cc1` [Example 46, (S)-2-(tert-Butoxy)-2-(4-(4,4-dimethylcyclohex-1-en-1-yl)-5-(4-(4-fluorophenethoxy)phenyl)-2,6-dimethylpyridin-3-yl)acetic Acid]: under 0.1 µM; for `Cc1nc(C)c([C@H](OC(C)(C)C)C(=O)O)c(-c2cc(F)c3c(c2)C=CCO3)c1-c1ccc(OCCc2ccc(F)cc2)cc1` [Example 47, (S)-2-(tert-Butoxy)-2-(4-(8-fluoro-2H-chromen-6-yl)-5-(4-(4-fluorophenethoxy)phenyl)-2,6-dimethylpyridin-3-yl)acetic Acid]: under 0.1 µM; for `Cc1nc(C)c([C@H](OC(C)(C)C)C(=O)O)c(-c2cc(F)c3c(c2)CCCO3)c1-c1ccc(OCCc2ccc(F)cc2)cc1` [Example 48, (S)-2-(tert-Butoxy)-2-(4-(8-fluorochroman-6-yl)-5-(4-(4-fluorophenethoxy)phenyl)-2,6-dimethylpyridin-3-yl)acetic Acid]: under 0.1 µM.

As to `Cc1cccc(F)c1CN1CCc2cc(-c3c(C)nc(C)c([C@H](OC(C)(C)C)C(=O)O)c3-c3cc(F)c4c(c3)CCCO4)ccc2C1` [Example 49, (S)-2-(tert-Butoxy)-2-(5-(2-(2-fluoro-6-methylbenzyl)-1,2,3,4-tetrahydroisoquinolin-6-yl)-4-(8-fluorochroman-6-yl)-2,6-dimethylpyridin-3-yl)acetic Acid], the EC50 is under 0.1 µM.

`Cc1cc(F)ccc1CN1CCc2cc(-c3c(C)nc(C)c([C@H](OC(C)(C)C)C(=O)O)c3-c3cc(F)c4c(c3)CCCO4)ccc2C1` [Example 50, (S)-2-(tert-Butoxy)-2-(5-(2-(4-fluoro-2-methylbenzyl)-1,2,3,4-tetrahydroisoquinolin-6-yl)-4-(8-fluorochroman-6-yl)-2,6-dimethylpyridin-3-yl)acetic Acid]: the EC50 is under 0.1 µM.

Take `Cc1cccc(Cl)c1CN1CCc2cc(-c3c(C)nc(C)c([C@H](OC(C)(C)C)C(=O)O)c3-c3cc(F)c4c(c3)CCCO4)ccc2C1` [Example 51, (S)-2-(tert-Butoxy)-2-(5-(2-(2-chloro-6-methylbenzyl)-1,2,3,4-tetrahydroisoquinolin-6-yl)-4-(8-fluorochroman-6-yl)-2,6-dimethylpyridin-3-yl)acetic Acid]: the EC50 was under 0.1 µM. Take `Cc1cc(N2CCc3cc(-c4c(C)nc(C)c([C@H](OC(C)(C)C)C(=O)O)c4-c4cc(F)c5c(c4)CCCO5)ccc3C2)ncn1` [Example 52, (S)-2-(tert-Butoxy)-2-(4-(8-fluorochroman-6-yl)-2,6-dimethyl-5-(2-(6-methylpyrimidin-4-yl)-1,2,3,4-tetrahydroisoquinolin-6-yl)pyridin-3-yl)acetic Acid]: the EC50 was under 0.1 µM. Same read-out and setting: then `Cc1nc(C)c([C@H](OC(C)(C)C)C(=O)O)c(-c2cc(F)c3c(c2)CCCO3)c1-c1ccc2c(c1)CCN(c1ncnc3c1cnn3C)C2` [Example 53, (S)-2-(tert-Butoxy)-2-(4-(8-fluorochroman-6-yl)-2,6-dimethyl-5-(2-(1-methyl-1H-pyrazolo[3,4-d]pyrimidin-4-yl)-1,2,3,4-tetrahydroisoquinolin-6-yl)pyridin-3-yl)acetic Acid], with under 0.1 µM; and `Cc1nc(C)c([C@H](OC(C)(C)C)C(=O)O)c(-c2ccc3c(c2)CCCO3)c1-c1ccc2c(c1)CCN(c1ncnc3c1cnn3C)C2` [Example 54, (S)-2-(tert-Butoxy)-2-(4-(chroman-6-yl)-2,6-dimethyl-5-(2-(1-methyl-1H-pyrazolo[3,4-d]pyrimidin-4-yl)-1,2,3,4-tetrahydroisoquinolin-6-yl)pyridin-3-yl)acetic Acid], with under 0.1 µM; and `Cc1cc(N2CCc3cc(-c4c(C)nc(C)c([C@H](OC(C)(C)C)C(=O)O)c4-c4ccc5c(c4)CCCO5)ccc3C2)ncn1` [Example 55, (S)-2-(tert-Butoxy)-2-(4-(chroman-6-yl)-2,6-dimethyl-5-(2-(6-methylpyrimidin-4-yl)-1,2,3,4-tetrahydroisoquinolin-6-yl)pyridin-3-yl)acetic Acid], with under 0.1 µM.

In the case of `Cc1cc(F)ccc1CN1CCc2cc(-c3c(C)nc(C)c([C@H](OC(C)(C)C)C(=O)O)c3-c3ccc4c(c3)CCCO4)ccc2C1` [Example 56, (S)-2-(tert-Butoxy)-2-(4-(chroman-6-yl)-5-(2-(4-fluoro-2-methylbenzyl)-1,2,3,4-tetrahydroisoquinolin-6-yl)-2,6-dimethylpyridin-3-yl)acetic Acid], the EC50 was under 0.1 µM. As for `COc1nccc(N2CCc3cc(-c4c(C)nc(C)c([C@H](OC(C)(C)C)C(=O)O)c4-c4ccc5c(c4)CCCO5)ccc3C2)n1` [Example 57, (S)-2-(tert-Butoxy)-2-(4-(chroman-6-yl)-5-(2-(2-methoxypyrimidin-4-yl)-1,2,3,4-tetrahydroisoquinolin-6-yl)-2,6-dimethylpyridin-3-yl)acetic Acid], the EC50 is under 0.1 µM.

On to `Cc1cc(N2CCc3cc(-c4c(C)nc(C)c([C@H](OC(C)(C)C)C(=O)O)c4-c4ccc5c(c4)CCCO5)ccc3C2)nc(C)n1` [Example 58, (S)-2-(tert-Butoxy)-2-(4-(chroman-6-yl)-5-(2-(2,6-dimethylpyrimidin-4-yl)-1,2,3,4-tetrahydroisoquinolin-6-yl)-2,6-dimethylpyridin-3-yl)acetic Acid], for which the EC50 was under 0.1 µM. For `Cc1nc(N)c(-c2ccc(OCCc3ccc(F)cc3)cc2)c(-c2ccc3c(c2)CCCO3)c1[C@H](OC(C)(C)C)C(=O)O` [Example 59, (S)-2-(6-Amino-4-(chroman-6-yl)-5-(4-(4-fluorophenethoxy)phenyl)-2-methylpyridin-3-yl)-2-(tert-butoxy)acetic Acid], the EC50 is under 0.1 µM.

As to `Cc1cc(F)ccc1CN1CCc2cc(-c3c(N)nc(C)c([C@H](OC(C)(C)C)C(=O)O)c3-c3ccc4c(c3)CCCO4)ccc2C1` [Example 60, (S)-2-(6-Amino-4-(chroman-6-yl)-5-(2-(4-fluoro-2-methylbenzyl)-1,2,3,4-tetrahydroisoquinolin-6-yl)-2-methylpyridin-3-yl)-2-(tert-butoxy)acetic Acid], the EC50 was under 0.1 µM. On the same count and under the same terms, then `Cc1nc(N)c(-c2ccc3c(c2)CCN(Cc2cccc(F)c2C)C3)c(-c2ccc3c(c2)CCCO3)c1[C@H](OC(C)(C)C)C(=O)O` [Example 61, (S)-2-(6-Amino-4-(chroman-6-yl)-5-(2-(3-fluoro-2-methylbenzyl)-1,2,3,4-tetrahydroisoquinolin-6-yl)-2-methylpyridin-3-yl)-2-(tert-butoxy)acetic acid], with under 0.1 µM; and `Cc1cccc(F)c1CN1CCc2cc(-c3c(N)nc(C)c([C@H](OC(C)(C)C)C(=O)O)c3-c3ccc4c(c3)CCCO4)ccc2C1` [Example 62, (S)-2-(6-Amino-4-(chroman-6-yl)-5-(2-(2-fluoro-6-methylbenzyl)-1,2,3,4-tetrahydroisoquinolin-6-yl)-2-methylpyridin-3-yl)-2-(tert-butoxy)acetic Acid], with under 0.1 µM; and `Cc1cccc(Cl)c1CN1CCc2cc(-c3c(N)nc(C)c([C@H](OC(C)(C)C)C(=O)O)c3-c3ccc4c(c3)CCCO4)ccc2C1` [Example 63, (S)-2-(6-Amino-5-(2-(2-chloro-6-methylbenzyl)-1,2,3,4-tetrahydroisoquinolin-6-yl)-4-(chroman-6-yl)-2-methylpyridin-3-yl)-2-(tert-butoxy)acetic Acid], with under 0.1 µM. The same measure, in the same setting: then `COc1nccc(N2CCc3cc(-c4c(N)nc(C)c([C@H](OC(C)(C)C)C(=O)O)c4-c4ccc5c(c4)CCCO5)ccc3C2)n1` [Example 64, (S)-2-(6-Amino-4-(chroman-6-yl)-5-(2-(2-methoxypyrimidin-4-yl)-1,2,3,4-tetrahydroisoquinolin-6-yl)-2-methylpyridin-3-yl)-2-(tert-butoxy)acetic Acid], with under 0.1 µM. As for `Cc1cc(N2CCc3cc(-c4c(N)nc(C)c([C@H](OC(C)(C)C)C(=O)O)c4-c4ccc5c(c4)CCCO5)ccc3C2)nc(C)n1` [Example 65, (S)-2-(6-Amino-4-(chroman-6-yl)-5-(2-(2,6-dimethylpyrimidin-4-yl)-1,2,3,4-tetrahydroisoquinolin-6-yl)-2-methylpyridin-3-yl)-2-(tert-butoxy)acetic Acid], the EC50 is under 0.1 µM.

The same experiment, now with this note: Human immunodeficiency virus 1, MT2, 120 h, read-out: EC50 μM.
Turning to `Cc1nc(C)c([C@H](OC(C)(C)C)C(=O)O)c(C2=CCC(C)(C)CC2)c1-c1ccc(OCCc2ccc(F)cc2)cc1` [Example 46, (S)-2-(tert-Butoxy)-2-(4-(4,4-dimethylcyclohex-1-en-1-yl)-5-(4-(4-fluorophenethoxy)phenyl)-2,6-dimethylpyridin-3-yl)acetic Acid], the EC50 was found to be 0.061 µM. For `Cc1nc(C)c([C@H](OC(C)(C)C)C(=O)O)c(-c2ccc3c(c2)CCCO3)c1-c1ccc2c(c1)CCN(c1ncnc3c1cnn3C)C2` [Example 54, (S)-2-(tert-Butoxy)-2-(4-(chroman-6-yl)-2,6-dimethyl-5-(2-(1-methyl-1H-pyrazolo[3,4-d]pyrimidin-4-yl)-1,2,3,4-tetrahydroisoquinolin-6-yl)pyridin-3-yl)acetic Acid], the EC50 was determined as 0.008 µM. Same read-out and setting: then `Cc1cc(F)ccc1CN1CCc2cc(-c3c(N)nc(C)c([C@H](OC(C)(C)C)C(=O)O)c3-c3ccc4c(c3)CCCO4)ccc2C1` [Example 60, (S)-2-(6-Amino-4-(chroman-6-yl)-5-(2-(4-fluoro-2-methylbenzyl)-1,2,3,4-tetrahydroisoquinolin-6-yl)-2-methylpyridin-3-yl)-2-(tert-butoxy)acetic Acid], with 0.003 µM.
